In patent US20230058623A1, “NOVEL HETEROARYL-TRIAZOLE COMPOUNDS AS PESTICIDES” (Bayer Aktiengesellschaft, priority 2019, published 2023):

What was measured:
Format in all cases: in vivo
[1] = system: adult brown dog ticks (Rhipicephalus sanguineus); assay: Rhipicephalus sanguineus in-vitro contact test, adult brown dog ticks; conditions: application rate 5 μg/cm^2 (=500 g/ha), after 48 hours, read-out: activity (efficacy: ticks dead or moribund)
How it was run: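 Acetone solution rolled onto tube walls, 2 h at 30 rpm; 900 ppm → 5 μg/cm^2. Solvent evaporated, 5-10 adults/tube, perforated lid, lying, RT. 48 h: heat plate 45-50° C ≤5 min; immotile/uncoordinated = dead/moribund. 100% = all dead/moribund.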

[2] = system: green peach aphid (Myzus persicae); assay: Myzus persicae oral test; conditions: 120 h, read-out: activity (mortality)
How it was run: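 Oral uptake format: water-diluted acetone concentrate of compound is blended into IPL41 medium carrying 33%+15% sugar and offered under a parafilm membrane. Percentage of dead insects is recorded after 5 days.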

[3] = system: brown planthopper (Nilaparvata lugens); assay: Nilaparvata lugens spray test; conditions: 96 h, after 4 days, rice plants; for mortality at 500 g/ha: application rate 500 g/ha; for mortality at 100 g/ha: application rate 100 g/ha
How it was run: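 Rice plants sprayed with compound diluted in water containing 1000 ppm emulsifier, then infested with brown planthopper. Mortality (%) scored after 4 days, 100% meaning all insects killed.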

[4] = system: adult mosquitoes Anopheles funestus strain FUMOZ-R; assay: Anopheles funestus test (ANPHFU surface treatment & contact assay); conditions: 24 hours after contact, read-out: efficacy (mortality); for mortality at 4 mg/m2: surface concentration 4 mg/m^2, exposure 30 minutes; for mortality at 20 mg/m2: surface concentration 20 mg/m^2, exposure 30 minutes
Method: Anopheles funestus Test (ANPHFU Surface Treatment & Contact Assay)
(§1) Solvent: Aceton+2000 ppm rapeseed oil methyl ester (RME)
(§2) In order to produce a sufficient, active ingredient containing solution it is necessary to solve the test compound in the solvent-mix (acetone at 2 mg/ml/RME 2000 ppm). This solution is pipetted onto a glazed tile and after evaporation of the acetone, adult mosquitoes of the species Anopheles funestus strain FUMOZ-R (Hunt et al., Med. Vet. Entomol. 2005 September; 19(3): 271-275) are placed onto the dried surface. The exposure time is 30 minutes.
(§3) Mortality in percent (%) is determined 24 hours after contact of the insects to the treated surface. 100% mortality means that all tested insects are dead, whereas 0% means that no insect died.

[5] = system: adult mosquitoes Culex quinquefasciatus strain P00; assay: Culex quinquefasciatus test (CULXFA surface treatment & contact assay); conditions: 24 hours after contact, read-out: efficacy (mortality); for mortality at 4 mg/m2: surface concentration 4 mg/m^2, exposure 30 minutes; for mortality at 20 mg/m2: surface concentration 20 mg/m^2, exposure 30 minutes
Method: Culex quinquefasciatus Test (CULXFA Surface Treatment & Contact Assay)
as §1
as §2, with “2 000” for “2000”, “Culex quinquefasciatus” for “Anopheles funestus”, “P00” for “FUMOZ-R (Hunt et al., Med. Vet. Entomol. 2005 September; 19(3): 271-275)”
as §3

[6] = system: adult engorged female ticks (Rhipicephalus microplus); assay: Rhipicephalus (Boophilus) microplus injection test; conditions: 168 h, application rate 4 μg/tick, egg deposition after 7 days, read-out: activity (efficacy: infertile eggs)
How it was run: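 Five adult engorged female ticks injected into the abdomen with 1 μL compound solution in DMSO, then held in a climate chamber. Fertile egg deposition assessed after 7 days, unclear eggs kept until hatching (about 42 days); efficacy 100% = all eggs infertile, 0% = all fertile.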

[7] = system: larvae of the banded cucumber beetle (Diabrotica balteata); assay: Diabrotica balteata spray test; conditions: 168 h, after 7 days, wheat seeds, read-out: activity (efficacy: seedlings grown); for pest or weed control at 32 µg/disc, 100 g/ha: application rate 100 g/ha (=32 μg/well)
How it was run: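 Wheat seeds germinated 1 day on agar were sprayed with compound diluted in water with 1000 ppm emulsifier, then infested with 10-20 Diabrotica balteata larvae. Efficacy in % scored after 7 days: 100% = seedlings grown as untreated, uninfected control; 0% = no seedlings grown.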

[8] = system: cattle ticks (Rhipicephalus microplus) strain Parkhurst, SP-resistant; assay: Rhipicephalus (Boophilus) microplus dip test; conditions: 168 h, application rate 100 ppm, egg deposition after 7 days, read-out: activity (efficacy: infertile eggs)
Method: Rhipicephalus (Boophilus) microplus—Dip Test
Test animal: cattle ticks (Rhipicephalus microplus) strain Parkhurst, SP-resistant
Solvent: dimethyl sulfoxide
To produce a suitable preparation of active compound, 10 mg of active compound are dissolved in 0.5 mL solvent, and the concentrate is diluted with water to the desired concentration.
This compound solution is pipetted into tubes. 8-10 engorged, adult, female cattle ticks (Rhipicephalus microplus) are placed in perforated tubes. These tubes are immersed in the aqueous compound solution until the ticks are completely moistened. After the liquid has drained off, the ticks are transferred to a filter paper in a plastic tray and stored in a climate chamber.
After 7 days egg deposition of fertile eggs is monitored. Eggs where fertility is not visible are stored in a climate chamber till hatching after about 42 days. An efficacy of 100% means all eggs are infertile; 0% means all eggs are fertile.

Row | SMILES | pest or weed control at 5 µg/cm2, 500 g/ha [1] [%] | mortality at 4 ppm [2] [%] | mortality at 500 g/ha [3] [%] | mortality at 4 mg/m2 [4] [%] | mortality at 20 mg/m2 [4] [%] | mortality at 4 mg/m2 [5] [%] | mortality at 20 mg/m2 [5] [%] | pest or weed control at 0.004 mg [6] [%] | pest or weed control at 32 µg/disc, 100 g/ha [7] [%] | mortality at 100 g/ha [3] [%] | pest or weed control at 100 ppm [8] [%] | pest or weed control at 160 µg/disc, 500 g/ha ([7]; application rate 500 g/ha (=160 μg/well)) [%]
1 | Cc1nc([C@H](C)NC(=O)c2cc(C(F)(F)F)cc(C(F)(F)F)c2)n(-c2ccc(C(=O)N3CCS(=O)(=O)CC3)cn2)n1 [Example I-76] | 100 | 100 | 100 | 80 to 100 | 80 to 100 | 80 to 100 | 80 to 100 | – | – | – | – | –
2 | C[C@H](NC(=O)c1cc(Cl)cc(C(F)(F)F)c1)c1ncnn1-c1ccc(C(=O)N2CCSCC2)cn1 [Example I-36] | 100 | 100 | – | 80 to 100 | 80 to 100 | – | – | 100 | 80 | 100 | – | –
3 | C[C@H](NC(=O)c1cc(C(F)(F)F)cc(C(F)(F)F)c1)c1ncnn1-c1ccc(C(=O)N2C[C@H](C)O[C@@H](C)C2)cn1 [Example I-94] | 100 | – | – | – | – | – | – | 100 | 100 | 90 | 100 | –
4 | Cc1nc([C@H](C)NC(=O)c2cc(C(F)(F)F)cc(C(F)(F)F)c2)n(-c2ncc(C(=O)N3CCOCC3)s2)n1 [Example I-4] | 100 | 100 | – | – | – | – | – | 100 | 100 | – | – | –
5 | COC1CN(C(=O)c2ccc(-n3ncnc3[C@H](C)NC(=O)c3cc(C(F)(F)F)cc(C(F)(F)F)c3)nc2)C1 [Example I-15] | 100 | 100 | – | – | – | – | – | 100 | 80 | – | 100 | –
6 | Cc1nc([C@H](C)NC(=O)c2cc(Cl)cc(C(F)(F)F)c2)n(-c2ccc(C(=O)N3CC(C)OC(C)C3)cn2)n1 (stereo partly drawn) [Example I-29] | 100 | 100 | – | – | – | – | – | 100 | 100 | – | – | –
7 | C[C@@H]1CN(C(=O)c2ccc(-n3ncnc3[C@H](C)NC(=O)c3cc(OC(F)(F)F)cc(C4CC4)c3)nc2)C[C@H](C)O1 [Example I-114] | 100 | 100 | – | – | – | – | – | 100 | 100 | – | 100 | –
8 | C[C@@H]1CN(C(=O)c2ccc(-n3ncnc3[C@H](C)NC(=O)c3cc(C(F)(F)F)cc(C(F)(F)F)c3)nc2)CCO1 [Example I-69] | 100 | 100 | – | 80 to 100 | 80 to 100 | – | 80 to 100 | – | 100 | – | – | –
9 | C[C@@H]1CN(C(=O)c2ccc(-n3ncnc3[C@H](C)NC(=O)c3cc(C(F)(F)F)cc(C(F)(F)F)c3)nc2)C[C@@H](C)O1 [Example I-46] | 100 | 100 | – | – | – | – | – | 100 | 100 | – | 100 | –
10 | COC1CCCN(C(=O)c2ccc(-n3ncnc3[C@H](C)NC(=O)c3cc(C(F)(F)F)cc(C(F)(F)F)c3)nc2)C1 (stereo partly drawn) [Example I-8] | 100 | 100 | – | – | – | – | – | 100 | – | 90 | 80 | –
11 | C[C@H](NC(=O)c1cc(Cl)cc(C(F)(F)F)c1)c1ncnn1-c1ccc(C(=O)N2CCS(=O)(=O)CC2)cn1 [Example I-35] | 100 | 100 | – | – | 80 to 100 | – | – | 100 | 100 | 100 | – | –
12 | CC1CN(C(=O)c2ccc(-n3ncnc3[C@H](C)NC(=O)c3cc(C(F)(F)F)cc(C(F)(F)F)c3)nc2)CC(C)O1 (stereo partly drawn) [Example I-5] | 100 | 100 | – | – | 80 to 100 | – | – | 100 | – | 90 | 100 | –
13 | C[C@@H]1CN(C(=O)c2ccc(-n3ncnc3[C@H](C)NC(=O)c3cc(C(F)(F)F)cc(C(F)(F)F)c3)nc2)C[C@H](C)O1 [Example I-50] | 100 | 100 | – | 80 to 100 | 80 to 100 | – | 80 to 100 | 100 | 100 | 90 | 100 | –
14 | C[C@H](NC(=O)c1cc(C(F)(F)F)cc(C(F)(F)F)c1)c1ncnn1-c1ccc(C(=O)N2CCS(=O)(=O)CC2)cn1 [Example I-75] | 100 | 100 | 100 | 80 to 100 | 80 to 100 | 80 to 100 | 80 to 100 | – | 100 | – | – | –
15 | C[C@H](NC(=O)c1cc(C(F)(F)F)cc(C(F)(F)F)c1)c1ncnn1-c1ccc(C(=O)N2CCOCC2)cn1 [Example I-2] | 100 | 100 | 100 | – | 80 to 100 | – | – | 100 | 100 | 90 | 100 | 100
16 | Cc1nc([C@H](C)NC(=O)c2cc(C(F)(F)F)cc(C(F)(F)F)c2)n(-c2ccc(C(=O)N3C[C@@H](C)O[C@@H](C)C3)cn2)n1 [Example I-45] | 100 | 100 | – | – | – | – | – | 100 | 100 | – | 80 | –
17 | Cc1nc([C@H](C)NC(=O)c2cc(C(F)(F)F)cc(C(F)(F)F)c2)n(-c2ccc(C(=O)N3CCOCC3)cn2)n1 [Example I-9, N-[(1S)-1-{3-methyl-1-[5-(morpholin-4-ylcarbonyl)pyridin-2-yl]-1H-1,2,4-triazol-5-yl}ethyl]-3,5-bis(trifluoromethyl)benzamide] | 100 | 100 | – | – | 80 to 100 | – | – | 100 | 100 | 100 | 100 | –
18 | C[C@@H]1CN(C(=O)c2ccc(-n3ncnc3[C@H](C)NC(=O)c3cc(Cl)cc(C(F)(F)F)c3)nc2)C[C@H](C)O1 [Example I-31] | 100 | 100 | – | – | – | – | – | 100 | 100 | – | – | –
19 | C[C@H](NC(=O)c1cc(C(F)(F)F)cc(C(F)(F)F)c1)c1ncnn1-c1ccc(C(=O)N2CCCC2)cn1 [Example I-11] | 100 | 100 | – | – | – | – | – | 100 | 80 | – | – | –
